Measurements: patent publication US8791098B2 (priority 2008, dated 2014)
Values after ≈ are worked out from the molar mass of the structure shown. Like-named read-outs stand apart in the source and are kept apart here.

Assays:
A549 = assay: Anti-proliferation MTT assay (Example 2, Table 1); format: cell-based; conditions: A549 human lung carcinoma
U937 = assay: Anti-proliferation MTT assay (Example 2, Table 1); format: cell-based; conditions: U-937; U937 human histiocytic lymphoma
SW-480 = assay: Anti-proliferation MTT assay (Example 2, Table 1); format: cell-based; conditions: SW480; SW-480 human colon adenocarcinoma
HL-60 cells [1] = assay: Apoptosis induction, DNA laddering; format: cell-based, human; conditions: for apoptosis induction (DNA laddering): HL-60, 24 hours after treatment
Protocol: Detection of DNA laddering: Apoptotic DNA fragmentation was investigated using the method described by Gong et al. 1-2 μg DNA were loaded into a well of a 1.7% agarose gel, separated by electrophoresis at 4 volts/cm for approximately 4 hours using 0.5×TBE buffer (0.045 M Tris-borate, 1 mM EDTA). The resulting bands were stained by ethidium bromide and detected under UV-light.
Anti-mitotic agents like epothilone (Trivedi, M. et al., Future Oncol. 4, 483-500 (2008)) disorazol (Elnakady, Y. A. et al., Biochem. Pharmacol. 67, 927-935 (2004); Irschik, H. et al., Antibiot. (Tokyo) 48, 31-35 (1995)), and tubulysin (Khalil, M. et al., Chembiochem. 7, 678-683 (2006)) are known to induce apoptosis in different cancer cell lines. A hallmark of apoptosis induced by animitotic agent is the cleavage the chromosomal DNA into distinct fragments which can be separated via gel electrophoresis to give the so called DNA-Ladder. We tested the ability of pre-tubulysin-816 and -827 to induce apoptosis in HL-60 cell lines. Growing cells were treated with different concentrations of the drugs for 24 and 48 hours. After that cells were collected with centrifugation and the chromosomal DNA was separated by using agarose gel electrophoresis as described in the methods section. The resulting DNA bands were stained with ethidium bromide and visualized under UV-light. […] However, the concentration of Pre-tubulysin-816 that was needed to induce apoptosis in HL-60 cells was about 10 folds higher than that of pre-tubulysin-827 under the same experimental conditions. In Summary pre-tubulysins 816 and 827 are novel antimitotic drugs that target the microtubules, induce G2M arrest, and induce apoptosis in cancer cell lines. However, the molecular details of apoptosis induction caused by these Drugs is still to be investigated.

PtK2 cells = format: cell-based; conditions: for concentration at which effects on microtubules and spindle morphologies appear / concentration for complete de-polymerization (disappearance) of interphase microtubules: 24 hours incubation
Protocol: Cell staining: Ptk2 cells were seeded on round glass coverslips (13 mm in diameter) in 4-well plates. Cells were incubated with the drugs to the given times as indicated for each experiment. For staining the microtubules and the nuclei, cells were firstly fixed with cold (−20° C.) acetone/methanol (1:1) for 10 min. For labelling the microtubules, cells were incubated with a primary monoclonal antibody against α-tubulin (1:500 Sigam) for 45 min at 37° C., followed by a secondary anti-mouse IgG antibody conjugated with Alexa488 (1:2000; Molecular probes) under the same incubations conditions. The nuclei were stained with DAPI (1 μg/ml in PBS). The cells were washed with phosphate buffer saline (PBS) between incubations. Coverslips were mounted by using Prolong Antifade (Molecular Probes) and imaged through a fluorescence microscope (LSM-Zeiss) with appropriate filter set.
Tubulysin A and D are known to induce de-polymerization of the interphase microtubules of mammalian cells and additionally induce a multi-polar spindle pool in mitotic cells (Khalil, M. et al., Chembiochem. 7, 678-683 (2006); Sasse, F., Menche, D. Nat. Chem. Biol. 3, 87-89 (2007)). Here the effect of pre-tubulysin treatment on the morphologies of microtubules and microtubules related structures in PtK2 cells was tested. PtK2 cells were seeded onto glass cover clips in 4 well plates and cultivated for 24 or 48 hours under growth conditions. The cells were then treated with different concentrations of tubulysin A, tubulysin D, pre-tubulysin-816 or pre-tubulysin-827. The control cells were treated only with equivalent amount of methanol (solvent). The cells were thin incubated for further 24 hours before they were fixed as described under the methods section. Fixed cells were then washed with PBS and finally labeled with anti-α-tubulin primary antibodies followed by anti-mouse-alexa-488 secondary antibodies to visualize the microtubules. The nuclei were stained with DAPI.

KB.3.1 cells = assay: Cell cycle analysis (FACS, DNA content); format: cell-based, human
Protocol: Cell cycle analysis: approximately 10^6 cells were harvested by centrifugation and fixed in −20° C. cold 80% methanol. After 30 min of incubation on ice, the cells were washed with PBS and then with saponin containing PBS (0.1%). For DNA staining cells were incubated for 30 min at 37° C. in a solution containing 20 μg ml^−1 Propidium iodide, and 1 mg ml^−1 RNase. Samples were analysed by FacScan (Becton Dickinson).
All drugs that target the microtubules are known to induce a cell cycle arrest in G2M phase in different cell lines. The ability of pre-tubulysin-816 and -827 on the progress of cell cycle in the cervices carcinoma cell line KB.3.1 was tested. Cells were treated with different concentrations of the drugs and incubated for 24 hours under cultivation conditions. After the incubation time was ended, cells were collected by centrifugation, fixed and the DNA was labeled as described in the method sections. The DNA content of the cells was detected via FACS analysis. The resulting data were calculated using Dean-Jett-Fox algorithm.

HL-60 cells [2] = assay: cells; conditions: Homo sapiens
Protocol: A given number of cells were cultivated in 96-well plates with serial dilutions of the drugs up to 100 ng/ml. Tubulysin A is used as a positive control, whereas methanol is used as a negative control. After 5 days of incubation the metabolic activities of the cells were measured using MTT-assay as described under the methods section.
The effect of pre-tubulysin 816 and 827 was tested with regard to the growth of other cell lines, including the mouse connective tissues fibroblast L929, the human lung carcinoma cell line A549, the human colon adenocarcinoma cell line SW-480, and the human histiocytic lymphoma cell line U937, in addition to the human myeloid leukemia cell line HL-60.

Compound | IC50 (A549) | IC50 (U937) | IC50 (SW-480) | apoptosis induction (DNA laddering) (HL-60 cells [1]) | concentration at which effects on microtubules and spindle morphologies appear (PtK2 cells) | concentration for complete de-polymerization (disappearance) of interphase microtubules (PtK2 cells) | concentration for complete de-polymerization (disappearance) of interphase microtubules (PtK2 cells; listed as Pre-tubulysin-827) | cells accumulated in the G2M-phase (KB.3.1 cells; KB3.1 cells, 100 ng/ml, 24 h (control approximately 30%)) | IC50 (HL-60 cells [2]; HL-60, 120 h) | IC50 (HL-60 cells [2]; HL-60, read-out: IC50 value) | concentration needed to induce apoptosis relative to pre-tubulysin-827 (HL-60 cells [1]; HL-60, same experimental conditions) | concentration for complete de-polymerization (disappearance) of interphase microtubules (PtK2 cells; listed as Pre-tubulysin-816) | effect on the interphase microtubules (PtK2 cells; concentrations up to 250 ng/ml, 24 h) | G2M cell cycle arrest (KB.3.1 cells; KB.3.1 cells, 24 hours)
CC[C@H](C)[C@H](NC(=O)[C@H]1CCCCN1C)C(=O)N(C)[C@H](CCc1nc(C(=O)N[C@@H](Cc2ccccc2)C[C@H](C)C(=O)O)cs1)C(C)C [pre-tubulysin-827, pretubulysin] | 9 ng/mL (≈ 13.4 nM) | 0.09 ng/mL (≈ 0.134 nM) | 0.15 ng/mL (≈ 0.224 nM) | able to induce apoptosis | 50 ng/ml | ≥ 1 µg/mL | 1 µg/mL | 65% | 0.017 ng/mL (≈ 0.0254 nM) | 0.017 ng/mL (≈ 0.0254 nM) |  |  |  | 
CC[C@H](C)[C@H](NC(=O)[C@H]1CCCCN1C)C(=O)N(C)[C@H](CCc1nc(C(=O)N[C@H](CCC(=O)O)Cc2ccccc2)cs1)C(C)C [pre-tubulysin-816, N-desmethyl-pretubulysin] | 95 ng/mL (≈ 145 nM) | 0.4 ng/mL (≈ 0.61 nM) | 1.37 ng/mL (≈ 2.09 nM) | able to induce apoptosis | ≥ 500 ng/ml | around 5 μg/ml |  |  | 0.15 ng/mL (≈ 0.229 nM) | 0.15 ng/mL (≈ 0.229 nM) | about 10 folds | 5 µg/mL | did not show any clear effect | induced an accumulation of the cells in the G2M-phase
